Where two headings read alike, the source gives them in different places. Blank lines part the entries; values can stand above or below the compound they belong to.
Experiments:
Experiment in all cases: biochemical
Set-up in all cases: Thermal shift (DSF, SYPRO Orange) Tm shift of recombinant kinase domains at 10 uM compound
CAMK4 = molecular target: T1, CAMK4 (Homo sapiens, UniProt Q16566)
T1 sequence (Q16566 1-473): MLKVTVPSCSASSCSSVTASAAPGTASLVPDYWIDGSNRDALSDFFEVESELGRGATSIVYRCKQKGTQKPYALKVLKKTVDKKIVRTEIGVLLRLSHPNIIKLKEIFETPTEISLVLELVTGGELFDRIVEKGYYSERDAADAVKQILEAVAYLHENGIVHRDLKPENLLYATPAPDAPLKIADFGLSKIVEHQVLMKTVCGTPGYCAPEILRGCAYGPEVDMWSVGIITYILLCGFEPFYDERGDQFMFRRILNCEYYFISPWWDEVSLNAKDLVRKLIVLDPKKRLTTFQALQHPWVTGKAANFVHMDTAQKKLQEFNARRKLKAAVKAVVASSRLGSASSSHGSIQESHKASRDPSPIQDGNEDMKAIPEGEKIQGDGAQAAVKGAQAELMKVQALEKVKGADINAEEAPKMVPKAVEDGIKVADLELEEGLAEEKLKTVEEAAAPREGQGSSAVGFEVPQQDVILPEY
Experimental: (§1) S23 Thermal stability kinase selectivity. The assay was performed as previously described. 9,10 Briefly, recombinant protein kinase domains at a concentration of 2 μM were mixed with 10 μM compound in a buffer containing 20 mM HEPES, pH 7.5, and 500 mM NaCl. SYPRO Orange (5000×, Invitrogen) was added as a fluorescence probe (1 µl per mL). Subsequently, temperature-dependent protein unfolding profiles were measured using the QuantStudio™ 5 realtime PCR machine (Thermo Fisher). […] The temperature was raised with a step rate of 3°C per minute. Data points were analysed with the internal software (Thermal Shift SoftwareTM Version 1.4, Thermo Fisher) using the Boltzmann equation to determine the inflection point of the transition curve.

RSK1_b = molecular target: T2, RSK1_b (Homo sapiens, UniProt Q15418)
T2 construct: gene RPS6KA1; second (C-terminal) kinase domain
T2 sequence (Q15418 whole entry, the tested form may be a part): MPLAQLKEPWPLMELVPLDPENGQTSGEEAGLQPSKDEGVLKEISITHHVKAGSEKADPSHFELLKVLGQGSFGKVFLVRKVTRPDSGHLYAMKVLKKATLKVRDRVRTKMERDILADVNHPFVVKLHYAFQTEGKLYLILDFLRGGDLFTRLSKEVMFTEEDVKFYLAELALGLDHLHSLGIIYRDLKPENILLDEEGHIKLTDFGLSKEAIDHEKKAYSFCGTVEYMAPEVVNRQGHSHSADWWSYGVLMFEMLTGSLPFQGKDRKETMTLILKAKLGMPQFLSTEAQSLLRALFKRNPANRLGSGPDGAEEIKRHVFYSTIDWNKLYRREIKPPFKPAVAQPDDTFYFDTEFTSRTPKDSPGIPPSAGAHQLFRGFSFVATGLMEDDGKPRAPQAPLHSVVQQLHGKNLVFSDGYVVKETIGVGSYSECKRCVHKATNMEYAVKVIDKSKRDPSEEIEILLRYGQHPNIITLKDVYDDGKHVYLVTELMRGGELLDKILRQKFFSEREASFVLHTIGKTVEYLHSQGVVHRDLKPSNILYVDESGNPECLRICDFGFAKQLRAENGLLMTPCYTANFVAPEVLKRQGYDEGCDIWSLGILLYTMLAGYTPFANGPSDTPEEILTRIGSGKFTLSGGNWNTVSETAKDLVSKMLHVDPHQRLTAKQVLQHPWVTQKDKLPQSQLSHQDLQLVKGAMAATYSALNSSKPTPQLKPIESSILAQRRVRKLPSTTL
Experimental: as §1

MST4 = molecular target: T3, MST4 (Homo sapiens, UniProt Q9P289)
T3 construct: gene STK26
T3 sequence (Q9P289 whole entry): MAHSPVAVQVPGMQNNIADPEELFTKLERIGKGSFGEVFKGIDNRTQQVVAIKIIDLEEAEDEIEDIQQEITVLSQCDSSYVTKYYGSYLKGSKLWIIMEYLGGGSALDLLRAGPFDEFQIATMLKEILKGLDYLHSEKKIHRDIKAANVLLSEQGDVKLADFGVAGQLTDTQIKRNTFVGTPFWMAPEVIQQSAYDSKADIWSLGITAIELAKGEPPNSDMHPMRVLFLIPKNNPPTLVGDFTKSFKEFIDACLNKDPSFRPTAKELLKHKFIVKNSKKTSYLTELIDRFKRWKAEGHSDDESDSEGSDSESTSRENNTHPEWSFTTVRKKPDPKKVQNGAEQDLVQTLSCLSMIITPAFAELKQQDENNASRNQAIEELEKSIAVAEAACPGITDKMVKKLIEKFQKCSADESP
Experimental: as §1

MARK4 = molecular target: T4, MARK4 (Homo sapiens, UniProt Q96L34)
T4 sequence (Q96L34 1-752): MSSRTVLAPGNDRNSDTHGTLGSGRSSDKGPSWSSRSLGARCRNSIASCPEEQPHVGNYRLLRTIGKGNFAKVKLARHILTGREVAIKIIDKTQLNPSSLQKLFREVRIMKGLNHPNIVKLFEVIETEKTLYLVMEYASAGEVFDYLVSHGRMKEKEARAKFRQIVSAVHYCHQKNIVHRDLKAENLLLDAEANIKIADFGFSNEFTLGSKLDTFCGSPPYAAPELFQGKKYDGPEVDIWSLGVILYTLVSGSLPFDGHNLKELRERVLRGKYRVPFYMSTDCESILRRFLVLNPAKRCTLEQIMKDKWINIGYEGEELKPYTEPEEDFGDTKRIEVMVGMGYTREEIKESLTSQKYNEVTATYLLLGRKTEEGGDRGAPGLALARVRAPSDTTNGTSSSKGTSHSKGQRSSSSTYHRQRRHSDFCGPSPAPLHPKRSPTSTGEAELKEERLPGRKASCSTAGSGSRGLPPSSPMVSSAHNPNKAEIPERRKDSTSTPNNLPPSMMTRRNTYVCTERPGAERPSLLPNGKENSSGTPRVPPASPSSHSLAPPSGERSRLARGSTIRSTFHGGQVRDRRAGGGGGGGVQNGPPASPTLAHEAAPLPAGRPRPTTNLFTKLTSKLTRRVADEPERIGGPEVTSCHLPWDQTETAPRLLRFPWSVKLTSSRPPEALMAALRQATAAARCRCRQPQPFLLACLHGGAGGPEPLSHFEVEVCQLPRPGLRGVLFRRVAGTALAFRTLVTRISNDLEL
Experimental: as §1

p38d = molecular target: T5, p38d (Homo sapiens, UniProt O15264)
T5 construct: gene MAPK13
T5 sequence (O15264 1-365): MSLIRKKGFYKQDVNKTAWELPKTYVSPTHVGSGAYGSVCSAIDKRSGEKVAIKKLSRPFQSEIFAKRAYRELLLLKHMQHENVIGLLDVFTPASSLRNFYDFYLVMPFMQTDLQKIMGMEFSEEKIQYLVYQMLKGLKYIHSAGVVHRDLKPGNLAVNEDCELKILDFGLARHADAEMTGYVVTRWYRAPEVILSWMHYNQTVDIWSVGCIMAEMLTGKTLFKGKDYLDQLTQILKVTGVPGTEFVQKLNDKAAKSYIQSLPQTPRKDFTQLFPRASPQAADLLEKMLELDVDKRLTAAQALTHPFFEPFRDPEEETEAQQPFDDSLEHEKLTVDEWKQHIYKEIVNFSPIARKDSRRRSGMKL
Experimental: as §1

DCAMKL1 = molecular target: T6, DCAMKL1 (Homo sapiens, UniProt O15075)
T6 construct: gene DCLK1
T6 sequence (O15075 1-740): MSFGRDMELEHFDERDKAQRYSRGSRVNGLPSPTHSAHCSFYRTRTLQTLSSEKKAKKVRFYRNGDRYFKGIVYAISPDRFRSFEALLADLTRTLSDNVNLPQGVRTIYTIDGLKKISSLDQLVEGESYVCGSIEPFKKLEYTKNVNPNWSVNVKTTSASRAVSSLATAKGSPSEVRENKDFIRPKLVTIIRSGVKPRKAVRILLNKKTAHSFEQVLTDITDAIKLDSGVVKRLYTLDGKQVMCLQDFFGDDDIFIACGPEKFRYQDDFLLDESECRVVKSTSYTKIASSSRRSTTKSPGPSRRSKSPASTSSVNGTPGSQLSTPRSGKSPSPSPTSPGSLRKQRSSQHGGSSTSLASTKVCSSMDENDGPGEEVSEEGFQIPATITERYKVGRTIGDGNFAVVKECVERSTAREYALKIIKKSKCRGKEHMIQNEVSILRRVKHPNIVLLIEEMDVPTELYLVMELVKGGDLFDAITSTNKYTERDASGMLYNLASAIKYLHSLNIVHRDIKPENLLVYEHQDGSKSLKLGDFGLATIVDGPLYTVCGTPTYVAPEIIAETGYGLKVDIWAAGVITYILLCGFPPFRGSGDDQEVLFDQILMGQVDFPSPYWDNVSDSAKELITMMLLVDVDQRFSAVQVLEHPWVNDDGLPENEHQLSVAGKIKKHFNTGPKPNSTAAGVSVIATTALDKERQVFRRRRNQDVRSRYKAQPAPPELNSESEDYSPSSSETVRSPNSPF
Experimental: as §1

NEK7 = NEK7 (Homo sapiens, UniProt Q8TDX7)
NEK7, sequence (Q8TDX7 whole entry): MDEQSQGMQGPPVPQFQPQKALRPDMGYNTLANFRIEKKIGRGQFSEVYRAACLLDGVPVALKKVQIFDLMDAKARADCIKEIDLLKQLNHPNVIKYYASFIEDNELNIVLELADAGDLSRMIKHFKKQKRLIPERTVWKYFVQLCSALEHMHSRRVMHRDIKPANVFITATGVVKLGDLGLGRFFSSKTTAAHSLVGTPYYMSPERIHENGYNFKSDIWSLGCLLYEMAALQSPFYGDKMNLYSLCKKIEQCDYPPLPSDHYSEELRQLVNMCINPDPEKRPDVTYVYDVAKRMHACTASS
Experimental: as §1

ΔTm at 10 µM (CAMK4; read-out: 6c): 0 °C
ΔTm at 10 µM (RSK1_b; read-out: 6c): 2 °C
ΔTm at 10 µM (MST4; read-out: 6c): -4 °C
ΔTm at 10 µM (MARK4; read-out: 6c): 1 °C
ΔTm at 10 µM (p38d; read-out: 6c): 1 °C
ΔTm at 10 µM (DCAMKL1; read-out: 6c): 3 °C
ΔTm at 10 µM (NEK7; read-out: 6c): -1 °C
Compound: CC(C)Oc1ccc2ccn(-c3cncc(-c4ccc(C(=O)O)cc4)n3)c2c1 [6c]

ΔTm at 10 µM (CAMK4; read-out: 7c): -1 °C
ΔTm at 10 µM (RSK1_b; read-out: 7c): 1 °C
ΔTm at 10 µM (MST4; read-out: 7c): -1 °C
ΔTm at 10 µM (MARK4; read-out: 7c): 0 °C
ΔTm at 10 µM (p38d; read-out: 7c): 0 °C
ΔTm at 10 µM (DCAMKL1; read-out: 7c): 3 °C
ΔTm at 10 µM (NEK7; read-out: 7c): -1 °C
Compound: COc1ccc(OC(C)C)cc1Nc1cncc(-c2ccc(C(=O)O)cc2)n1 [7c]

ΔTm at 10 µM (CAMK4; read-out: 2): 1 °C
ΔTm at 10 µM (RSK1_b; read-out: 2): 4 °C
ΔTm at 10 µM (MST4; read-out: 2): 3 °C
ΔTm at 10 µM (MARK4; read-out: 2): 1 °C
ΔTm at 10 µM (p38d; read-out: 2): 0 °C
ΔTm at 10 µM (DCAMKL1; read-out: 2): 4 °C
ΔTm at 10 µM (NEK7; read-out: 2): 0 °C
Compound: CC(C)Nc1ccc2cnn(-c3cncc(-c4ccc(C(=O)O)cc4)n3)c2c1 [compound 2, 2]
